The values that follow come from PubChem BioAssay AID270 (DTP/NCI, 2004).

Values joined by “and” are separate entries in the source; they are usually repeats but may differ in a detail not shown here. Identical values can stand only once. Records with an inconclusive call do not appear.

The experiment deals with BDF1 mice, s.c. Lewis lung carcinoma, T/C %. The experiment in a line: NCI In Vivo Anticancer Drug Screen. Data for tumor model Lewis Lung Carcinoma (subcutaneous) in B6D2F1 (BDF1) mice. In a few lines:
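First, mice carry a transplantable tumor. Next, groups receive either compound or vehicle. Finally, survival or tumor dimensions in the dosed animals are divided by the corresponding control figure.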

Where [1] appears, read: endpoint: mean tumor weight, dose: 50.0 mg/kg/injection, schedule: Q01DX011 (ip), vehicle: carboxymethylcellulose (CMC), higher = larger tumour.
The mark [2] stands for this setting: endpoint: median survival time, dose: 12.5 mg/kg/injection, schedule: Q01DX009 (ip), vehicle: Klucel (hydroxypropylcellulose) (HPC), higher = longer survival.
The mark [3] stands for this setting: endpoint: median survival time, dose: 25.0 mg/kg/injection, schedule: Q01DX009 (ip), vehicle: Klucel (hydroxypropylcellulose) (HPC), higher = longer survival.

As for `O=C1C(=O)c2ccccc2C(O)=C1CC=C(Cl)Cl`, the T/C by setting is: (endpoint: mean tumor weight, dose: 12.5 mg/kg/injection, schedule: Q01DX011 (ip), vehicle: carboxymethylcellulose (CMC), higher = larger tumour) 88 % of control; (endpoint: mean tumor weight, dose: 25.0 mg/kg/injection, schedule: Q01DX011 (ip), vehicle: carboxymethylcellulose (CMC), higher = larger tumour) 76 % of control; under setting [1], 90 % of control; (endpoint: mean tumor weight, dose: 50.0 mg/kg/injection, schedule: Q01DX011 (oral), vehicle: carboxymethylcellulose (CMC), higher = larger tumour) 84 % of control; under setting [2], 89 % of control and 100 % of control and 106 % of control; under setting [3], 86 % of control and 94 % of control and 110 % of control. The T/C was 113 % of control (endpoint: median survival time, dose: 34.0 mg/kg/injection, schedule: Q01DX009 (ip), vehicle: water, higher = longer survival); 103 % of control and 110 % of control (endpoint: median survival time, dose: 50.0 mg/kg/injection, schedule: Q01DX009 (ip), vehicle: Klucel (hydroxypropylcellulose) (HPC), higher = longer survival); 110 % of control (endpoint: median survival time, dose: 50.0 mg/kg/injection, schedule: Q01DX009 (ip), vehicle: water, higher = longer survival); 117 % of control (endpoint: median survival time, dose: 100.0 mg/kg/injection, schedule: Q01DX009 (ip), vehicle: Klucel (hydroxypropylcellulose) (HPC), higher = longer survival); 93 % of control and 99 % of control (endpoint: median tumor weight (est.), dose: 12.5 mg/kg/injection, schedule: Q01DX009 (ip), vehicle: Klucel (hydroxypropylcellulose) (HPC), higher = larger tumour); 78 % of control and 86 % of control (endpoint: median tumor weight (est.), dose: 25.0 mg/kg/injection, schedule: Q01DX009 (ip), vehicle: Klucel (hydroxypropylcellulose) (HPC), higher = larger tumour). Also, the T/C is 87 % of control (endpoint: median tumor weight (est.), dose: 50.0 mg/kg/injection, schedule: Q01DX009 (ip), vehicle: Klucel (hydroxypropylcellulose) (HPC), higher = larger tumour) and 70 % of control (endpoint: median tumor weight (est.), dose: 100.0 mg/kg/injection, schedule: Q01DX009 (ip), vehicle: Klucel (hydroxypropylcellulose) (HPC), higher = larger tumour).
On to `CCN(CC)C(=S)S.[Te]`, for which the T/C was 24 % of control and 36 % of control under setting [1]; 10 % of control (endpoint: mean tumor weight, dose: 200.0 mg/kg/injection, schedule: Q01DX011 (ip), vehicle: carboxymethylcellulose (CMC), higher = larger tumour).
Regarding `C1CN1c1nc(N2CC2)nc(N2CC2)n1`, the T/C (endpoint: mean tumor weight, dose: 0.25 mg/kg/injection, schedule: Q01DX011 (ip), vehicle: saline, higher = larger tumour) was 72 % of control and 80 % of control; the T/C (endpoint: mean tumor weight, dose: 0.5 mg/kg/injection, schedule: Q01DX011 (ip), vehicle: saline, higher = larger tumour) was 44 % of control and 46 % of control; the T/C (endpoint: median survival time, dose: 0.05 mg/kg/injection, schedule: Q01DX009 (ip), vehicle: saline, higher = longer survival) is 96 % of control and 113 % of control; the T/C (endpoint: median survival time, dose: 0.1 mg/kg/injection, schedule: Q01DX009 (ip), vehicle: saline, higher = longer survival) is 92 % of control and 106 % of control; the T/C (endpoint: median survival time, dose: 0.12 mg/kg/injection, schedule: Q01DX009 (ip), vehicle: saline, higher = longer survival) is 118 % of control; the T/C (endpoint: median survival time, dose: 0.13 mg/kg/injection, schedule: Q01DX009 (ip), vehicle: saline, higher = longer survival) was 90 % of control. For the same molecule, the T/C is 100 % of control (endpoint: median survival time, dose: 0.2 mg/kg/injection, schedule: Q01DX009 (ip), vehicle: saline, higher = longer survival); 89 % of control and 104 % of control (endpoint: median survival time, dose: 0.4 mg/kg/injection, schedule: Q01DX009 (ip), vehicle: saline, higher = longer survival); 123 % of control (endpoint: median survival time, dose: 0.5 mg/kg/injection, schedule: Q01DX009 (ip), vehicle: saline with Tween-80, higher = longer survival); 102 % of control (endpoint: median survival time, dose: 0.5 mg/kg/injection, schedule: Q08DX002 (ip), vehicle: saline with Tween-80, higher = longer survival); 92 % of control and 111 % of control and 123 % of control (endpoint: median survival time, dose: 0.5 mg/kg/injection, schedule: Q08DX002 (ip), vehicle: saline, higher = longer survival); 119 % of control (endpoint: median survival time, dose: 1.0 mg/kg/injection, schedule: Q08DX002 (ip), vehicle: saline with Tween-80, higher = longer survival). The T/C reads like this: (endpoint: median survival time, dose: 2.0 mg/kg/injection, schedule: Q08DX002 (ip), vehicle: saline with Tween-80, higher = longer survival) 115 % of control; (endpoint: median survival time, dose: 2.0 mg/kg/injection, schedule: Q08DX002 (ip), vehicle: saline, higher = longer survival) 155 % of control; (endpoint: median survival time, dose: 4.0 mg/kg/injection, schedule: Q08DX002 (ip), vehicle: saline, higher = longer survival) 93 % of control; (endpoint: median survival time, dose: 250.0 micrograms/kg/injection, schedule: Q01DX009 (ip), vehicle: saline, higher = longer survival) 172 % of control; (endpoint: median survival time, dose: 500.0 micrograms/kg/injection, schedule: Q01DX009 (ip), vehicle: saline, higher = longer survival) 110 % of control; (endpoint: median tumor weight (est.), dose: 0.12 mg/kg/injection, schedule: Q01DX009 (ip), vehicle: saline with Tween-80, higher = larger tumour) 95 % of control. Further, the T/C runs as follows: (endpoint: median tumor weight (est.), dose: 0.25 mg/kg/injection, schedule: Q01DX009 (ip), vehicle: saline with Tween-80, higher = larger tumour) 81 % of control; (endpoint: median tumor weight (est.), dose: 0.5 mg/kg/injection, schedule: Q01DX009 (ip), vehicle: saline with Tween-80, higher = larger tumour) 58 % of control; (endpoint: median tumor weight (est.), dose: 0.5 mg/kg/injection, schedule: Q08DX002 (ip), vehicle: saline with Tween-80, higher = larger tumour) 97 % of control; (endpoint: median tumor weight (est.), dose: 1.0 mg/kg/injection, schedule: Q08DX002 (ip), vehicle: saline with Tween-80, higher = larger tumour) 86 % of control; (endpoint: median tumor weight (est.), dose: 2.0 mg/kg/injection, schedule: Q08DX002 (ip), vehicle: saline with Tween-80, higher = larger tumour) 49 % of control.
As to `C[CH2][Pb]([CH2]C)([CH2]C)[O]C(=O)COC`, the T/C by setting is: (endpoint: median survival time, dose: 1.56 mg/kg/injection, schedule: Q01DX009 (ip), vehicle: Klucel (hydroxypropylcellulose) (HPC), higher = longer survival) 92 % of control; (endpoint: median survival time, dose: 3.13 mg/kg/injection, schedule: Q01DX009 (ip), vehicle: Klucel (hydroxypropylcellulose) (HPC), higher = longer survival) 96 % of control.
For `Nc1nc2c(ncn2C2OC(CO)C(O)C2N)c(=O)[nH]1` (stereo not given), the T/C reads like this: (endpoint: median survival time, dose: 1.56 mg/kg/injection, schedule: Q01DX009 (ip), vehicle: saline, higher = longer survival) 95 % of control; (endpoint: median survival time, dose: 3.12 mg/kg/injection, schedule: Q01DX009 (ip), vehicle: Klucel (hydroxypropylcellulose) (HPC), higher = longer survival) 99 % of control; (endpoint: median survival time, dose: 3.13 mg/kg/injection, schedule: Q01DX009 (ip), vehicle: saline, higher = longer survival) 91 % of control and 104 % of control; (endpoint: median survival time, dose: 6.25 mg/kg/injection, schedule: Q01DX009 (ip), vehicle: Klucel (hydroxypropylcellulose) (HPC), higher = longer survival) 102 % of control; (endpoint: median survival time, dose: 6.25 mg/kg/injection, schedule: Q01DX009 (ip), vehicle: saline, higher = longer survival) 97 % of control; under setting [2], 102 % of control. In addition, the T/C is, setting by setting: (endpoint: median survival time, dose: 12.5 mg/kg/injection, schedule: Q01DX009 (ip), vehicle: saline with Tween-80, higher = longer survival) 95 % of control; (endpoint: median survival time, dose: 12.5 mg/kg/injection, schedule: Q01DX009 (ip), vehicle: saline, higher = longer survival) 98 % of control; under setting [3], 90 % of control; (endpoint: median survival time, dose: 25.0 mg/kg/injection, schedule: Q01DX009 (ip), vehicle: saline with Tween-80, higher = longer survival) 118 % of control; (endpoint: median survival time, dose: 25.0 mg/kg/injection, schedule: Q01DX009 (ip), vehicle: saline, higher = longer survival) 94 % of control; (endpoint: median survival time, dose: 50.0 mg/kg/injection, schedule: Q01DX009 (ip), vehicle: saline with Tween-80, higher = longer survival) 110 % of control.
With `COCC(O)Cn1ccnc1[N+](=O)[O-]` (stereo not given), the T/C reads like this: (endpoint: median survival time, dose: 500.0 mg/kg/injection, schedule: Q01DX001 (ip), vehicle: saline, higher = longer survival) 81 % of control; (endpoint: median survival time, dose: 600.0 mg/kg/injection, schedule: Q01DX001 (ip), vehicle: saline, higher = longer survival) 77 % of control and 93 % of control; (endpoint: median survival time, dose: 1000.0 mg/kg/injection, schedule: Q01DX001 (ip), vehicle: saline, higher = longer survival) 74 % of control and 91 % of control and 94 % of control.
Regarding `CCC(C)n1ncc2c(N(C)C)ncnc21` (stereo not given), the T/C (endpoint: mean tumor weight, dose: 32.5 mg/kg/injection, schedule: Q01DX011 (ip), vehicle: carboxymethylcellulose (CMC), higher = larger tumour) is 76 % of control.
In the case of `CCCCN(C)N=Nc1ccc(CCC(=O)OCC)cc1`, the T/C reads like this: (endpoint: median tumor weight (est.), dose: 72.0 mg/kg/injection, schedule: Q01DX009 (ip), vehicle: saline with Tween-80, higher = larger tumour) 107 % of control; (endpoint: median tumor weight (est.), dose: 145.0 mg/kg/injection, schedule: Q01DX009 (ip), vehicle: saline with Tween-80, higher = larger tumour) 95 % of control; (endpoint: median tumor weight (est.), dose: 290.0 mg/kg/injection, schedule: Q01DX009 (ip), vehicle: saline with Tween-80, higher = larger tumour) 61 % of control.
For the molecule `CCN(CC)Cc1c(O)ccc2c3c(c(=O)oc12)CCCC3`, the T/C was 99 % of control (endpoint: median survival time, dose: 29.0 mg/kg/injection, schedule: Q01DX009 (ip), vehicle: Klucel (hydroxypropylcellulose) (HPC), higher = longer survival) and 94 % of control (endpoint: median survival time, dose: 58.0 mg/kg/injection, schedule: Q01DX009 (ip), vehicle: Klucel (hydroxypropylcellulose) (HPC), higher = longer survival).
For `Nc1ccccc1N`, the T/C by setting is: (endpoint: median survival time, dose: 25.0 mg/kg/injection, schedule: Q02DX009 (ip), vehicle: saline with Tween-80, higher = longer survival) 112 % of control; (endpoint: median survival time, dose: 50.0 mg/kg/injection, schedule: Q02DX009 (ip), vehicle: saline with Tween-80, higher = longer survival) 118 % of control; (endpoint: median survival time, dose: 100.0 mg/kg/injection, schedule: Q02DX009 (ip), vehicle: saline with Tween-80, higher = longer survival) 97 % of control; (endpoint: median survival time, dose: 200.0 mg/kg/injection, schedule: Q02DX009 (ip), vehicle: saline with Tween-80, higher = longer survival) 111 % of control.
On to `C/C=C/c1cc2n(c1)C(=O)c1cc(OC3OC(C)C(NC)C(C)(O)C3O)c(C)c(O)c1NC2O` (stereo not given), for which the T/C by setting is: (endpoint: median survival time, dose: 2.0 micrograms/kg/injection, schedule: Q04DX003 (ip), vehicle: saline, higher = longer survival) 102 % of control; (endpoint: median survival time, dose: 4.0 micrograms/kg/injection, schedule: Q04DX003 (ip), vehicle: saline, higher = longer survival) 92 % of control; (endpoint: median survival time, dose: 8.0 micrograms/kg/injection, schedule: Q04DX003 (ip), vehicle: saline, higher = longer survival) 103 % of control; (endpoint: median survival time, dose: 16.0 micrograms/kg/injection, schedule: Q04DX003 (ip), vehicle: saline, higher = longer survival) 95 % of control.
